From PubChem BioAssay (NCI)
Values joined by “and” are separate entries in the source; they are usually repeats but may differ in a detail not shown here. Equal values may be shown once.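 Compound exposure: 48 hours, 5 concentrations, 96-well plates. GI50: concentration for 50% inhibition of growth. TGI denotes the concentration required for complete inhibition of growth.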

Key:
Assay in all cases: growth of human tumour cells (NCI), 48 h
LOX IMVI melanoma = system: LOX IMVI melanoma
MDA-MB-435 = system: MDA-MB-435
ACHN renal = system: ACHN renal
SF-295 CNS = system: SF-295 CNS
SW-620 colon = system: SW-620 colon
NCI-H23 lung = system: NCI-H23 lung
PC-3 prostate = system: PC-3 prostate
A498 renal = system: A498 renal
COLO 205 colon = system: COLO 205 colon
MALME-3M melanoma = system: MALME-3M melanoma

Structure (SMILES)	GI50 (LOX IMVI melanoma)	TGI (LOX IMVI melanoma)	GI50 (MDA-MB-435)	TGI (MDA-MB-435)	GI50 (ACHN renal)	TGI (ACHN renal) [µM]	GI50 (SF-295 CNS)	TGI (SF-295 CNS)	GI50 (SW-620 colon)	TGI (SW-620 colon)	GI50 (NCI-H23 lung)	TGI (NCI-H23 lung)	GI50 (PC-3 prostate)	TGI (PC-3 prostate)	TGI (A498 renal)	GI50 (COLO 205 colon)	TGI (COLO 205 colon)	GI50 (MALME-3M melanoma)	TGI (MALME-3M melanoma)	GI50 (A498 renal)
COc1cc(OC)cc(N(CCNC(C)C)c2ccc3ncc(-c4cnn(C)c4)nc3c2)c1	2.71 µM	11.8 µM	5.73 µM	19 µM	2.18 µM	8.12	10.8 µM	25.1 µM	6.38 µM	20.4 µM	6.9 µM	20.9 µM	6.54 µM	23.2 µM	3.5 µM	4.64 µM	18.5 µM	6.48 µM	21.5 µM	–
FC(F)(F)c1nc2nc(Cl)c(Cl)nc2n1CCCN1CCOCC1	–	> 100 µM	–	> 100 µM	–	> 100	–	> 100 µM	–	> 100 µM	–	> 100 µM	–	> 100 µM	> 100 µM	–	> 100 µM	–	> 100 µM	–
COC(=O)CCc1c[nH]c2ccc(N(CCCl)CCCl)cc12	1.39 µM	> 36.2 µM	8.98 µM	25.9 µM	0.383 µM	–	0.826 µM	> 58.8 µM	3.41 µM	37 µM	1.25 µM	39.7 µM	8.65 µM	> 73.4 µM	18.2 µM	3.5 µM	19.4 µM	5.95 µM	30.1 µM	3.4 µM
CC(=O)OCC1OC(n2c(-c3ccc(Cl)cc3)ccc(C#N)c2=S)C(OC(C)=O)C(OC(C)=O)C1OC(C)=O (stereo unspecified)	–	> 100 µM	–	> 100 µM	–	> 100	13.8 µM and > 100 µM	35 µM and > 100 µM	–	> 100 µM	29.3 µM and > 100 µM	> 100 µM	–	> 100 µM	56.1 µM and > 100 µM	> 100 µM and 49.5 µM	> 100 µM	–	> 100 µM	24.9 µM and 73.8 µM
Cc1cnc(NC(=O)Nc2cc(Br)c(C)cc2OC[C@@H]2CNCCO2)cn1	0.828 µM and 1.45 µM	2.46 µM and 4.97 µM	0.459 µM and 0.378 µM	3.58 µM and 2.43 µM	0.319 µM and 0.225 µM	–	0.326 µM and 0.263 µM	> 10 µM and 3.02 µM	3.68 µM and 3.28 µM	> 10 µM and 13.4 µM	0.466 µM and 0.548 µM	> 10 µM and 9.42 µM	5.77 µM and 3.73 µM	> 10 µM and 16.4 µM	–	2.58 µM and 2.72 µM	9.03 µM and 8.55 µM	1.63 µM and 1.94 µM	> 10 µM and 6.55 µM	0.33 µM and 0.0894 µM
COc1cc(/C=C2\C(=O)Nc3cc(C)c(O)cc32)cc(OC)c1OC	3.66 µM	14.4 µM	1.52 µM	3.7 µM	8.27 µM	24.6	6.03 µM	26.3 µM	4.08 µM	15.9 µM	3.61 µM	23.7 µM	4.32 µM	> 100 µM	25.4 µM	6.09 µM	22.8 µM	0.454 µM	9.11 µM	8.5 µM
COc1ccc(S(=O)(=O)N2CC(C)(C)CN(S(=O)(=O)c3ccc(OC)cc3)C2C(=O)NO)cc1	> 11.1 µM	> 20 µM	> 20 µM	> 20 µM	> 20 µM	> 20	> 20 µM	> 20 µM	> 20 µM	> 20 µM	> 20 µM	> 20 µM	> 20 µM	> 20 µM	> 20 µM	> 20 µM	> 20 µM	5.93 µM	> 20 µM	> 20 µM
Cc1ccc(-c2csc(/N=C3\C(=O)Nc4ccccc43)n2)cc1	1.28 µM	2.8 µM	1.38 µM	2.87 µM	2.62 µM	14.2	1.32 µM	2.87 µM	1.62 µM	3.66 µM	1.46 µM	2.98 µM	1.08 µM	2.82 µM	3.53 µM	1.31 µM	3.23 µM	1.52 µM	3.4 µM	1.71 µM
OCc1ccc(-c2ccc(-c3ccc(CO)o3)[se]2)o1	> 91.9 µM	> 100 µM	42.5 µM	> 100 µM	> 100 µM	> 100	> 40.8 µM	> 100 µM	> 100 µM	> 100 µM	> 100 µM	> 100 µM	69.1 µM	> 100 µM	0.375 µM	60.2 µM	> 100 µM	> 100 µM	> 100 µM	0.17 µM
CCC[CH2][Sn]([CH2]CCC)([CH2]CCC)[O]c1ccc(Cl)cc1Cl	0.111 µM	0.253 µM	0.139 µM	0.29 µM	0.155 µM	0.291	0.15 µM	0.307 µM	0.131 µM	0.279 µM	0.109 µM	0.321 µM	0.15 µM	0.443 µM	0.21 µM	0.16 µM	0.31 µM	0.0973 µM	0.238 µM	0.0565 µM
Cc1cc(S(=O)(=O)Nc2nc3cscc3c(=O)n2Cc2ccccc2)c(S)cc1Cl	23.2 µM	51.6 µM	44.4 µM	> 100 µM	52.6 µM	> 100	23.7 µM	> 100 µM	26.6 µM	> 100 µM	51.5 µM	> 100 µM	35.6 µM	> 100 µM	> 100 µM	> 100 µM	> 100 µM	28.7 µM	> 100 µM	46.6 µM
CN[C@H]1C=C[C@@H]2/C=C(C)/C=C/[C@@H](C)[C@H]([C@H](C)[C@H](O)[C@@H](C)NC(C)=O)OC(=O)/C=C/C=C(C)\C=C\[C@]2(C)C1	0.0049 µM	0.00504 µM	< 0.001 µM and 0.0049 µM	9.14 µM	0.0146 µM	> 49	< 0.001 µM and 0.0049 µM	–	0.00655 µM	> 49 µM	0.0687 µM and 0.0376 µM	> 49 µM	0.0049 µM	> 49 µM	2.67 µM	0.00815 µM	8.64 µM	0.0808 µM and 0.0458 µM	21.7 µM	0.0113 µM
S=C(Nc1ccc(Br)cc1)Nc1ccc(Br)cc1	5.29 µM	> 100 µM	6.04 µM	> 100 µM	4.25 µM	> 100	2.99 µM	> 100 µM	4.43 µM	> 100 µM	3.47 µM	> 100 µM	4.17 µM	> 100 µM	> 100 µM	7.82 µM	> 100 µM	11.7 µM	> 100 µM	5.38 µM
COc1ccc(C(=O)/C=C/c2ccc(C)cc2)cc1OC	13 µM	25.6 µM	15.5 µM	32 µM	14.2 µM	28.1	12.1 µM	28.4 µM	10.2 µM	21.8 µM	10.4 µM	22.8 µM	15.4 µM	32.4 µM	25 µM	10.1 µM	21.6 µM	15.9 µM	36 µM	12.5 µM
CCCNNC(=O)/C=C/c1ccc(CNCCc2c(C)[nH]c3ccccc23)cc1	0.0368 µM	0.0797 µM	0.0494 µM	0.464 µM	0.0284 µM	0.116	0.0471 µM	0.171 µM	0.0177 µM	0.237 µM	0.0545 µM	3.5 µM	0.0175 µM	3.74 µM	0.0244 µM	0.0111 µM	0.0428 µM	0.015 µM	1.22 µM	0.00955 µM
O=S(=O)(Nc1ccccc1Cl)c1ccc(-c2cnc(C3CC3)o2)cc1	0.79 µM	> 90.8 µM	0.0552 µM	0.388 µM	0.744 µM	> 100	0.438 µM	15.3 µM	0.312 µM	> 100 µM	1.78 µM	> 100 µM	0.521 µM	> 100 µM	0.608 µM	0.489 µM	5.58 µM	0.472 µM	44.3 µM	0.0873 µM
C=C1C(=O)O[C@@H]2C[C@@H](C)[C@@H]3C=CC(=O)[C@@]3(C)[C@@H](OC(=O)CC(=O)O[C@H]3[C@@H]4C(=C)C(=O)O[C@@H]4C[C@@H](C)[C@@H]4C=CC(=O)[C@]43C)[C@H]12	–	0.069 µM	–	0.144 µM	–	0.189	–	0.302 µM	–	0.0326 µM	–	0.123 µM	–	0.436 µM	0.467 µM	–	0.0403 µM	–	0.0368 µM	–
Cn1cc(C2=C(c3cn(CCCCN)c4ccccc34)C(=O)NC2=O)c2ccccc21	> 25 µM	> 25 µM	> 25 µM	> 25 µM	> 25 µM	> 25	–	> 25 µM	> 25 µM	> 25 µM	> 25 µM	> 25 µM	> 25 µM	> 25 µM	> 25 µM	> 25 µM	> 25 µM	> 25 µM	> 25 µM	> 25 µM
COc1cc(NC(N)=NCCC(C)(C)Oc2ccc(C(F)(F)F)cc2)ncc1C#N	1.6 µM	3.01 µM	1.73 µM	3.17 µM	1.7 µM	3.06	1.57 µM	2.99 µM	1.69 µM	3.46 µM	1.43 µM	2.81 µM	1.42 µM	2.82 µM	3.23 µM	1.58 µM	3.06 µM	1.81 µM	3.44 µM	1.8 µM
CCCN(CCCC(NC(C)=O)C(=O)NCc1ccccc1)C(=O)N(CCCl)N=O (stereo unspecified)	–	31.5 µM	–	> 100 µM	–	37.5	–	43.3 µM	–	49.7 µM	–	22.9 µM	–	> 100 µM	31.1 µM	–	42.6 µM	–	39.7 µM	–
COc1ccc(-c2cc(=O)c3ccc(C)nc3[nH]2)cc1	–	> 100 µM	42.7 µM	> 100 µM	–	> 100	88.3 µM	> 100 µM	–	> 100 µM	–	> 100 µM	> 100 µM	> 100 µM	> 100 µM	–	> 100 µM	–	> 100 µM	–
CCOC(=O)c1sc(-c2ccc(OS(=O)(=O)c3ccc(Br)s3)c(C=O)c2)nc1C	2.9 µM	8.52 µM	2.47 µM	6.79 µM	3.02 µM	9.05	5.08 µM	18.4 µM	3.28 µM	12.8 µM	3.37 µM	13.7 µM	2.97 µM	11 µM	40.1 µM	16.8 µM	33.8 µM	4.08 µM	18.1 µM	6.15 µM
Clc1nc(Cl)c2ncn(Cc3cccc(Cn4cnc5c(Cl)nc(Cl)nc54)c3)c2n1	2.23 µM	5.57 µM	7.29 µM	22.2 µM	2.53 µM	6.21	16.5 µM	30.9 µM	1.82 µM	3.34 µM	8.5 µM	22.1 µM	3.99 µM	13.6 µM	17.2 µM	3.37 µM	11.3 µM	3.11 µM	9.84 µM	4.59 µM
CC(C)(C)C(=O)c1c(C(F)(F)F)n([O-])c2ccccc2[n+]1=O	0.396 µM	1.7 µM	0.606 µM	1.68 µM	0.272 µM	0.743	0.294 µM	1.27 µM	0.467 µM	2 µM	1.17 µM	2.39 µM	0.817 µM	2.38 µM	1.75 µM	0.616 µM	1.73 µM	0.973 µM	2.34 µM	0.565 µM
FC(F)c1nc2ccccc2n1-c1nc(N2CCOCC2)nc(N2CCOCC2)n1	0.376 µM and 0.491 µM	–	0.397 µM and 0.429 µM	–	0.299 µM and 0.397 µM	> 100	0.237 µM and 0.196 µM	1.63 µM and 1.78 µM	0.573 µM and 1.16 µM	> 100 µM	0.492 µM and 0.617 µM	–	0.0722 µM and 0.113 µM	–	0.169 µM and 0.138 µM	0.277 µM and 0.507 µM	–	0.178 µM and 0.16 µM	1.65 µM and 0.919 µM	0.0303 µM and 0.0216 µM
